{
  "source": "patent US20180000085A1",
  "about": "“USE OF PICOLINAMIDE COMPOUNDS WITH FUNGICIDAL ACTIVITY” (DOW AGROSCIENCES LLC, priority 2014, published 2018)",
  "key": {"[1]": {"test_system": "Puccinia triticina", "test": "Wheat brown rust (PUCCRT) disease control on wheat seedlings", "type": "in vivo", "set-up": "key to PUCCRT 3DC, HV activity at 100 ppm (% control rating) / PUCCRT disease control, 3DC / PUCCRT 1DP disease control rating, HV activity / PUCCRT 3DC disease control rating, HV activity / PUCCRT 3DC, LV activity at 125.1 g/H (% Control rating) / PUCCRT 1DP, LV activity at 125.1 g/H (% Control rating) / PUCCRT 3DC disease control rating, LV activity at 125.1 g/H / PUCCRT 1DP disease control rating, LV activity at 125.1 g/H / PUCCRT 3DC disease control rating, HV activity at 100 ppm / PUCCRT 1DP disease control rating, HV activity at 100 ppm / HV activity at 100 ppm PUCCRT 3DC (disease control rating) / LV activity at 125.1 g/H PUCCRT 1DP (disease control rating) / LV activity at 125.1 g/H PUCCRT 3DC (disease control rating): A: > 80; B: ≤ 80; C: Not Tested; D: No Activity Observed in the Reported Assay", "conditions": "for LV activity at 125.1 g/H PUCCRT 1DP (disease control rating) / LV activity at 125.1 g/H PUCCRT 3DC (disease control rating) / PUCCRT 1DP disease control rating, HV activity / PUCCRT 3DC disease control rating, HV activity: wheat brown rust; for PUCCRT 1DP disease control rating, HV activity / PUCCRT 3DC disease control rating, HV activity: HV application at 100 ppm; for PUCCRT 1DP disease control rating, LV activity at 125.1 g/H: 1 day protectant; for PUCCRT 3DC disease control rating, LV activity at 125.1 g/H: 3 day curative"}, "[2]": {"test_system": "Zymoseptoria tritici", "test": "Leaf blotch of wheat (SEPTTR) disease control on wheat seedlings", "type": "in vivo", "set-up": "key to SEPTTR 1DP, HV activity at 100 ppm (% control rating) / SEPTTR 3DC, HV activity at 100 ppm (% control rating) / SEPTTR disease control, 1DP / SEPTTR disease control, 3DC / SEPTTR 1DP disease control rating, HV activity / SEPTTR 3DC disease control rating, HV activity / SEPTTR 3DC, LV activity at 125.1 g/H (% Control rating) / SEPTTR 1DP, LV activity at 125.1 g/H (% Control rating) / SEPTTR 1DP disease control rating, LV activity at 125.1 g/H / SEPTTR 3DC disease control rating, LV activity at 125.1 g/H / SEPTTR 3DC disease control rating, HV activity at 100 ppm / SEPTTR 1DP disease control rating, HV activity at 100 ppm / HV activity at 100 ppm SEPTTR 3DC (disease control rating) / HV activity at 100 ppm SEPTTR 1DP (disease control rating) / LV activity at 125.1 g/H SEPTTR 1DP (disease control rating) / LV activity at 125.1 g/H SEPTTR 3DC (disease control rating): A: > 80; B: ≤ 80; C: Not Tested; D: No Activity Observed in the Reported Assay", "conditions": "for LV activity at 125.1 g/H SEPTTR 1DP (disease control rating) / LV activity at 125.1 g/H SEPTTR 3DC (disease control rating) / SEPTTR 1DP disease control rating, HV activity / SEPTTR 3DC disease control rating, HV activity: wheat leaf blotch; for SEPTTR 1DP disease control rating, HV activity / SEPTTR 3DC disease control rating, HV activity: HV application at 100 ppm; for SEPTTR 1DP disease control rating, LV activity at 125.1 g/H: 1 day protectant; for SEPTTR 3DC disease control rating, LV activity at 125.1 g/H: 3 day curative"}, "[3]": {"conditions": "low volume application, 125.1 g/H, 1 Day Protectant"}, "[4]": {"conditions": "low volume application, 125.1 g/H, 3 Day Curative"}, "[5]": {"conditions": "low volume application, 125.1 g/H"}},
  "data": [
    {"smiles": "COc1ccnc(C(=O)N[C@@H](C)C(=O)O[C@@H](C)[C@@H](CC(C)C)Oc2ccc(C)cc2Cl)c1OC(C)=O", "note": "[Cmpd 1115]", "values": [
      {"measurement": "LV activity at 125.1 g/H PUCCRT 1DP (disease control rating)", "setting": "[1]; [3]", "value": "A (> 80)"},
      {"measurement": "LV activity at 125.1 g/H PUCCRT 3DC (disease control rating)", "setting": "[1]; [4]", "value": "A (> 80)"},
      {"measurement": "LV activity at 125.1 g/H SEPTTR 1DP (disease control rating)", "setting": "[2]; [3]", "value": "B (≤ 80)"},
      {"measurement": "LV activity at 125.1 g/H SEPTTR 3DC (disease control rating)", "setting": "[2]; [4]", "value": "B (≤ 80)"}
    ]},
    {"smiles": "COc1ccnc(C(=O)N[C@@H](C)C(=O)O[C@@H](C)COC2CCCC2)c1O", "note": "[Cmpd 340]", "values": [
      {"measurement": "PUCCRT 1DP disease control rating, HV activity", "setting": "[1]; 1 Day Protectant", "value": "B (≤ 80)"},
      {"measurement": "PUCCRT 3DC disease control rating, HV activity", "setting": "[1]; 3 Day Curative", "value": "A (> 80)"},
      {"measurement": "SEPTTR 1DP disease control rating, HV activity", "setting": "[2]; 1 Day Protectant", "value": "B (≤ 80)"},
      {"measurement": "SEPTTR 3DC disease control rating, HV activity", "setting": "[2]; 3 Day Curative", "value": "D"}
    ]},
    {"smiles": "C=CC[C@@H](Oc1ccc(Cl)cc1Cl)[C@H](C)OC(=O)[C@H](C)NC(=O)c1nccc(OC)c1OC(C)=O", "note": "[Cmpd 697]", "values": [
      {"measurement": "PUCCRT 1DP disease control rating, LV activity at 125.1 g/H", "setting": "[1]; [5]", "value": "A (> 80)"},
      {"measurement": "PUCCRT 3DC disease control rating, LV activity at 125.1 g/H", "setting": "[1]; [5]", "value": "A (> 80)"},
      {"measurement": "SEPTTR 1DP disease control rating, LV activity at 125.1 g/H", "setting": "[2]; [5]", "value": "D"},
      {"measurement": "SEPTTR 3DC disease control rating, LV activity at 125.1 g/H", "setting": "[2]; [5]", "value": "B (≤ 80)"}
    ]},
    {"smiles": "CC[C@H](OC)[C@@H](Oc1ccc(Cl)cc1Cl)[C@H](C)OC(=O)[C@H](C)NC(=O)c1nccc(OC)c1O", "note": "[Cmpd 402]", "values": [
      {"measurement": "PUCCRT 1DP disease control rating, HV activity", "setting": "[1]; 1 Day Protectant", "value": "B (≤ 80)"},
      {"measurement": "PUCCRT 3DC disease control rating, HV activity", "setting": "[1]; 3 Day Curative", "value": "B (≤ 80)"},
      {"measurement": "SEPTTR 1DP disease control rating, HV activity", "setting": "[2]; 1 Day Protectant", "value": "B (≤ 80)"},
      {"measurement": "SEPTTR 3DC disease control rating, HV activity", "setting": "[2]; 3 Day Curative", "value": "B (≤ 80)"}
    ]},
    {"smiles": "COc1ccnc(C(=O)N[C@@H](C)C(=O)O[C@@H](C)[C@@H](OCC(C)C)c2ccccc2)c1OC(C)=O", "note": "[Cmpd 878]", "values": [
      {"measurement": "PUCCRT 1DP disease control rating, LV activity at 125.1 g/H", "setting": "[1]; [5]", "value": "A (> 80)"},
      {"measurement": "PUCCRT 3DC disease control rating, LV activity at 125.1 g/H", "setting": "[1]; [5]", "value": "A (> 80)"},
      {"measurement": "SEPTTR 1DP disease control rating, LV activity at 125.1 g/H", "setting": "[2]; [5]", "value": "B (≤ 80)"},
      {"measurement": "SEPTTR 3DC disease control rating, LV activity at 125.1 g/H", "setting": "[2]; [5]", "value": "B (≤ 80)"}
    ]},
    {"smiles": "CCC(CC)[C@@H](Oc1ccc(C(F)(F)F)cc1)[C@H](C)OC(=O)[C@@H](NC(=O)c1nccc(OC)c1O)C(C)C", "note": "[Cmpd 412]", "values": [
      {"measurement": "PUCCRT 1DP disease control rating, HV activity", "setting": "[1]; 1 Day Protectant", "value": "B (≤ 80)"},
      {"measurement": "PUCCRT 3DC disease control rating, HV activity", "setting": "[1]; 3 Day Curative", "value": "D"},
      {"measurement": "SEPTTR 1DP disease control rating, HV activity", "setting": "[2]; 1 Day Protectant", "value": "B (≤ 80)"},
      {"measurement": "SEPTTR 3DC disease control rating, HV activity", "setting": "[2]; 3 Day Curative", "value": "B (≤ 80)"}
    ]},
    {"smiles": "COc1ccnc(C(=O)N[C@@H](C)C(=O)O[C@@H](C)[C@H](Oc2ccc3ccccc3c2)C(C)C)c1OC(C)=O", "note": "[Cmpd 632]", "values": [
      {"measurement": "PUCCRT 1DP, LV activity at 125.1 g/H (% Control rating)", "setting": "[1]; [3]", "value": "A (> 80)"},
      {"measurement": "PUCCRT 3DC, LV activity at 125.1 g/H (% Control rating)", "setting": "[1]; [4]", "value": "A (> 80)"},
      {"measurement": "SEPTTR 1DP, LV activity at 125.1 g/H (% Control rating)", "setting": "[2]; [3]", "value": "D"},
      {"measurement": "SEPTTR 3DC, LV activity at 125.1 g/H (% Control rating)", "setting": "[2]; [4]", "value": "D"}
    ]},
    {"smiles": "CCC(CC)C(Oc1cc(F)cc(Cl)c1)C(C)OC(=O)C(C)NC(=O)c1nccc(OC)c1O", "note": "(stereo not shown) [Cmpd 383]", "values": [
      {"measurement": "PUCCRT 1DP disease control rating, HV activity", "setting": "[1]; 1 Day Protectant", "value": "A (> 80)"},
      {"measurement": "PUCCRT 3DC disease control rating, HV activity", "setting": "[1]; 3 Day Curative", "value": "A (> 80)"},
      {"measurement": "SEPTTR 1DP disease control rating, HV activity", "setting": "[2]; 1 Day Protectant", "value": "B (≤ 80)"},
      {"measurement": "SEPTTR 3DC disease control rating, HV activity", "setting": "[2]; 3 Day Curative", "value": "A (> 80)"}
    ]},
    {"smiles": "COc1ccnc(C(=O)N[C@@H](C)C(=O)O[C@@H](C)[C@H](Oc2cccc(Cl)c2)C(C)(C)C)c1OC(C)=O", "note": "[Cmpd 1055]", "values": [
      {"measurement": "LV activity at 125.1 g/H PUCCRT 1DP (disease control rating)", "setting": "[1]; [3]", "value": "A (> 80)"},
      {"measurement": "LV activity at 125.1 g/H PUCCRT 3DC (disease control rating)", "setting": "[1]; [4]", "value": "A (> 80)"},
      {"measurement": "LV activity at 125.1 g/H SEPTTR 1DP (disease control rating)", "setting": "[2]; [3]", "value": "B (≤ 80)"},
      {"measurement": "LV activity at 125.1 g/H SEPTTR 3DC (disease control rating)", "setting": "[2]; [4]", "value": "A (> 80)"}
    ]},
    {"smiles": "CCC(CC)[C@@H](Oc1ccc(Cl)cc1)[C@H](C)OC(=O)[C@@H](NC(=O)c1nccc(OC)c1O)C(C)C", "note": "[Cmpd 407]", "values": [
      {"measurement": "PUCCRT 1DP disease control rating, HV activity", "setting": "[1]; 1 Day Protectant", "value": "B (≤ 80)"},
      {"measurement": "PUCCRT 3DC disease control rating, HV activity", "setting": "[1]; 3 Day Curative", "value": "B (≤ 80)"},
      {"measurement": "SEPTTR 1DP disease control rating, HV activity", "setting": "[2]; 1 Day Protectant", "value": "B (≤ 80)"},
      {"measurement": "SEPTTR 3DC disease control rating, HV activity", "setting": "[2]; 3 Day Curative", "value": "D"}
    ]}
  ]
}
